Several values for one entry are separate records, joined by “and”; a condition that tells them apart may be missing. Equal entries are not always repeated.
How the values were obtained:
[1] = biological target: T1, Type-1 angiotensin II receptor (Homo sapiens, UniProt P30556)
T1 sequence (P30556 whole entry): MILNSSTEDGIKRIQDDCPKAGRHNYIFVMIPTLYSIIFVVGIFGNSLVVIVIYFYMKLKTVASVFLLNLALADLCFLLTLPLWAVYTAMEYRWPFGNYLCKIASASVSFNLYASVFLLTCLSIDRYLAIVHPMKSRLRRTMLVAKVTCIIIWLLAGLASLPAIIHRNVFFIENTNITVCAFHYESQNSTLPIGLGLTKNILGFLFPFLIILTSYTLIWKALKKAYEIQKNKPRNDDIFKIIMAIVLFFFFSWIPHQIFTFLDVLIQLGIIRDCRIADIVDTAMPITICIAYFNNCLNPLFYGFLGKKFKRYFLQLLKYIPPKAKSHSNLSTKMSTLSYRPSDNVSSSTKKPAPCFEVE

[2] = biological target: Histamine H2 receptor (Homo sapiens, UniProt P25021); format: functional, cell-based
[3] = biological target: Melanocortin receptor 4 (Homo sapiens, UniProt P32245)
Chain of Melanocortin receptor 4 (P32245 whole entry): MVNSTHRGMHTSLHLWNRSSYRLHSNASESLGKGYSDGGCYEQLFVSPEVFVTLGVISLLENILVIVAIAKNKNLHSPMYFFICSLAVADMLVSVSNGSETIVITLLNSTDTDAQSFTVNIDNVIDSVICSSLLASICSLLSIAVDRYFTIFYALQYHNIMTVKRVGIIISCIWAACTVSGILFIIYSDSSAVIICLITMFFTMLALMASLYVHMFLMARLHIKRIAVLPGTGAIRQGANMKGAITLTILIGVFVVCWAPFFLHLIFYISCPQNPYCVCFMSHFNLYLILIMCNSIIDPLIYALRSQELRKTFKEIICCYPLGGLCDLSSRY

[4] = biological target: T2, Muscarinic acetylcholine receptor M2 (Homo sapiens, UniProt P08172); format: functional, cell-based
T2 sequence (P08172 whole entry): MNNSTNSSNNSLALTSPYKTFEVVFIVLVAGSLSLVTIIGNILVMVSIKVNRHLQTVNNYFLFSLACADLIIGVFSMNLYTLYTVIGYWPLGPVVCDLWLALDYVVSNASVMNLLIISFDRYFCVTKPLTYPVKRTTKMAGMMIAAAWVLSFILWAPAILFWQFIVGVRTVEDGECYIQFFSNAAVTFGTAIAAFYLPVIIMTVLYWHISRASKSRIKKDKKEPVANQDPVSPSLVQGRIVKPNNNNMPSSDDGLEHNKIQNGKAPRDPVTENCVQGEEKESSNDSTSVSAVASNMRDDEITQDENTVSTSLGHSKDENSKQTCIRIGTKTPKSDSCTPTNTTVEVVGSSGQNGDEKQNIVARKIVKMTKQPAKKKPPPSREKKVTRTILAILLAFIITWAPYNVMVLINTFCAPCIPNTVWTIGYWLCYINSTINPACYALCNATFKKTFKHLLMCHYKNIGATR

[5] = biological target: T3, Gamma-aminobutyric acid receptor subunit alpha-1 (Rattus norvegicus, UniProt P62813); format: functional
T3 sequence (P62813 whole entry): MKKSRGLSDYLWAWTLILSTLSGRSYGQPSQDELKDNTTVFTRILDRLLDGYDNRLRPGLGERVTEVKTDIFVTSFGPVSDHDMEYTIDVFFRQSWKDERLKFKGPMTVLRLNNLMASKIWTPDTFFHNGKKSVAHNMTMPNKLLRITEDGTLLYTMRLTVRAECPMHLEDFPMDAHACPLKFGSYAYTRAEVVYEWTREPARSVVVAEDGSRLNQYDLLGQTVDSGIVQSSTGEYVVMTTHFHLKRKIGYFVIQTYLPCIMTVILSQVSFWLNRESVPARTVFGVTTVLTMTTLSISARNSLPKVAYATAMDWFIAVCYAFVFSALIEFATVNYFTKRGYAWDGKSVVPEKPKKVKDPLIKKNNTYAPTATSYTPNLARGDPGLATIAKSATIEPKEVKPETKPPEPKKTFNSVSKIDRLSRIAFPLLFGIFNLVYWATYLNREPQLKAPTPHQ

[6] = biological target: Growth hormone secretagogue receptor type 1 (Homo sapiens, UniProt Q92847)
Chain of Growth hormone secretagogue receptor type 1 (Q92847 whole entry): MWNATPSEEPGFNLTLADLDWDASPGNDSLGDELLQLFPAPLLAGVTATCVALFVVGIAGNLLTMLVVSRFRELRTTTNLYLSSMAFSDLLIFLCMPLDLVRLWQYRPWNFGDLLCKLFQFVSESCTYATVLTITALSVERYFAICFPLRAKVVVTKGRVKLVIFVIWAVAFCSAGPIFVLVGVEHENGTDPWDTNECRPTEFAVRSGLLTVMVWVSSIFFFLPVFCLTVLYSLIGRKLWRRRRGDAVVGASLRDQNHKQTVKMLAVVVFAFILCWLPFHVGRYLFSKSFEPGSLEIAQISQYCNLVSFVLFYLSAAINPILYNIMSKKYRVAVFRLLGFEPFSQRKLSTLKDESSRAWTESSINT

[7] = biological target: T3, Gamma-aminobutyric acid receptor subunit alpha-1
[8] = biological target: T4, Adenosine receptor A3 (Homo sapiens, UniProt P0DMS8)
T4 sequence (P0DMS8 whole entry): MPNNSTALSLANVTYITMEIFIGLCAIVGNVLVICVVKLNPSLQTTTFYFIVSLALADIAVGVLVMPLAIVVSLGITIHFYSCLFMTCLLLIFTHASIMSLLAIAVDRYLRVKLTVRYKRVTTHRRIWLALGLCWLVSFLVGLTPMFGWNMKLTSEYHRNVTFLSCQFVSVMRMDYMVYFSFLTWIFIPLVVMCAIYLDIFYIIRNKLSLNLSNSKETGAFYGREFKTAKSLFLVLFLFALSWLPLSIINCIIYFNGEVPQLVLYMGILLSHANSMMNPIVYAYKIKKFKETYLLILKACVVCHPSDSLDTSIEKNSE

[9] = biological target: Vasopressin V1a receptor (Homo sapiens, UniProt P37288)
Chain of Vasopressin V1a receptor (P37288 whole entry): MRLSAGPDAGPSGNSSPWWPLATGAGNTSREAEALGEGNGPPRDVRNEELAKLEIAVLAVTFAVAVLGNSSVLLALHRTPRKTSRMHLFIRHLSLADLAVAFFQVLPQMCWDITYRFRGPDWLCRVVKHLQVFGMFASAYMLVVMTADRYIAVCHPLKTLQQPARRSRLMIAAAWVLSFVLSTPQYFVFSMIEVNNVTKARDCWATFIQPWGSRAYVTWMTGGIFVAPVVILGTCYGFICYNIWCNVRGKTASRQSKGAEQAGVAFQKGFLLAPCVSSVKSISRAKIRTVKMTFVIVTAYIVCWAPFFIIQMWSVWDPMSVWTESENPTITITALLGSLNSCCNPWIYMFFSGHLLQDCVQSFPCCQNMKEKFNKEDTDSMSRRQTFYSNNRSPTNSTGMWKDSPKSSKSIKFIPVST

[10] = biological target: Sodium-dependent dopamine transporter (Homo sapiens, UniProt Q01959)
Chain of Sodium-dependent dopamine transporter (Q01959 whole entry): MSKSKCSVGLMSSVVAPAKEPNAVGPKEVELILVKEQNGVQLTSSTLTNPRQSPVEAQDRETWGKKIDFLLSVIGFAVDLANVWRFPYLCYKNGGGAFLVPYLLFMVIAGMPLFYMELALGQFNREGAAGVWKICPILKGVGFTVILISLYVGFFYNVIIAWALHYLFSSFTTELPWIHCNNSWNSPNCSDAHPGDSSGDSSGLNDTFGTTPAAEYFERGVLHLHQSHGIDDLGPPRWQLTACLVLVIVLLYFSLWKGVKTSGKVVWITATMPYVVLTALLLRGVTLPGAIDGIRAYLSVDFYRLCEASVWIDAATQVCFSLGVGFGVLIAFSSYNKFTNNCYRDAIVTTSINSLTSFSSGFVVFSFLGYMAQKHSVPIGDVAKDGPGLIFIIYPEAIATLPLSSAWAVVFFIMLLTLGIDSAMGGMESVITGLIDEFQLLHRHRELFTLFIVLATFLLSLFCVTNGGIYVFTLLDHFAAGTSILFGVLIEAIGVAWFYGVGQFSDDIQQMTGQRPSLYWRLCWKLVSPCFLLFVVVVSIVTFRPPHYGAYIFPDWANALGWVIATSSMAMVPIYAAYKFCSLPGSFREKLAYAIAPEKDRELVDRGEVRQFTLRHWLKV

[11] = biological target: Cannabinoid receptor 1 (Homo sapiens, UniProt P21554); format: functional, cell-based
Chain of Cannabinoid receptor 1 (P21554 whole entry): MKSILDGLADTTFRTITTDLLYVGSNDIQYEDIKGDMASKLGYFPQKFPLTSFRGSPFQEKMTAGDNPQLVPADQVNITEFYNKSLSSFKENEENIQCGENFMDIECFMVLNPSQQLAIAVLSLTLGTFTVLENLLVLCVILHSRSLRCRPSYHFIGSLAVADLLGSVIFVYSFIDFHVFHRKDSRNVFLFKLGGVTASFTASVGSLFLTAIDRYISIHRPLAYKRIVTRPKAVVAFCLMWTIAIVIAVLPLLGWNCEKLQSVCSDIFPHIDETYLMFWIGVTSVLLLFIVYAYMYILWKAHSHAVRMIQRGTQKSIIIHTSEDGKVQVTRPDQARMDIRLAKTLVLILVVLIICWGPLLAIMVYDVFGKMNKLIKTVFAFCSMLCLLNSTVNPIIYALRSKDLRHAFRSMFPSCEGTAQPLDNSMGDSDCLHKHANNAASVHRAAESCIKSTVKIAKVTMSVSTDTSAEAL

[12] = biological target: T2, Muscarinic acetylcholine receptor M2; format: functional, cell-based; remark: listed apart in the source
[13] = biological target: T5, Adenosine receptor A1 (Homo sapiens, UniProt P30542)
T5 sequence (P30542 whole entry): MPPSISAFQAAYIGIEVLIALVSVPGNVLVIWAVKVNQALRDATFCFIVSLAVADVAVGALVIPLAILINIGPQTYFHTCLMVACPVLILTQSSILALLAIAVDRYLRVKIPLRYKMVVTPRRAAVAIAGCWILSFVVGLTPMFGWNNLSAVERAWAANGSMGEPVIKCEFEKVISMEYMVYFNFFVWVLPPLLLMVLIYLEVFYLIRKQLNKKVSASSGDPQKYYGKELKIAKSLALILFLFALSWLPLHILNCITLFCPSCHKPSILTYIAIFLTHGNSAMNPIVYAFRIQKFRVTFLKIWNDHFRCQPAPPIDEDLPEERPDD

[14] = biological target: Voltage-dependent L-type calcium channel subunit alpha-1C (Rattus norvegicus, UniProt P22002); format: functional
Chain of Voltage-dependent L-type calcium channel subunit alpha-1C (P22002 whole entry): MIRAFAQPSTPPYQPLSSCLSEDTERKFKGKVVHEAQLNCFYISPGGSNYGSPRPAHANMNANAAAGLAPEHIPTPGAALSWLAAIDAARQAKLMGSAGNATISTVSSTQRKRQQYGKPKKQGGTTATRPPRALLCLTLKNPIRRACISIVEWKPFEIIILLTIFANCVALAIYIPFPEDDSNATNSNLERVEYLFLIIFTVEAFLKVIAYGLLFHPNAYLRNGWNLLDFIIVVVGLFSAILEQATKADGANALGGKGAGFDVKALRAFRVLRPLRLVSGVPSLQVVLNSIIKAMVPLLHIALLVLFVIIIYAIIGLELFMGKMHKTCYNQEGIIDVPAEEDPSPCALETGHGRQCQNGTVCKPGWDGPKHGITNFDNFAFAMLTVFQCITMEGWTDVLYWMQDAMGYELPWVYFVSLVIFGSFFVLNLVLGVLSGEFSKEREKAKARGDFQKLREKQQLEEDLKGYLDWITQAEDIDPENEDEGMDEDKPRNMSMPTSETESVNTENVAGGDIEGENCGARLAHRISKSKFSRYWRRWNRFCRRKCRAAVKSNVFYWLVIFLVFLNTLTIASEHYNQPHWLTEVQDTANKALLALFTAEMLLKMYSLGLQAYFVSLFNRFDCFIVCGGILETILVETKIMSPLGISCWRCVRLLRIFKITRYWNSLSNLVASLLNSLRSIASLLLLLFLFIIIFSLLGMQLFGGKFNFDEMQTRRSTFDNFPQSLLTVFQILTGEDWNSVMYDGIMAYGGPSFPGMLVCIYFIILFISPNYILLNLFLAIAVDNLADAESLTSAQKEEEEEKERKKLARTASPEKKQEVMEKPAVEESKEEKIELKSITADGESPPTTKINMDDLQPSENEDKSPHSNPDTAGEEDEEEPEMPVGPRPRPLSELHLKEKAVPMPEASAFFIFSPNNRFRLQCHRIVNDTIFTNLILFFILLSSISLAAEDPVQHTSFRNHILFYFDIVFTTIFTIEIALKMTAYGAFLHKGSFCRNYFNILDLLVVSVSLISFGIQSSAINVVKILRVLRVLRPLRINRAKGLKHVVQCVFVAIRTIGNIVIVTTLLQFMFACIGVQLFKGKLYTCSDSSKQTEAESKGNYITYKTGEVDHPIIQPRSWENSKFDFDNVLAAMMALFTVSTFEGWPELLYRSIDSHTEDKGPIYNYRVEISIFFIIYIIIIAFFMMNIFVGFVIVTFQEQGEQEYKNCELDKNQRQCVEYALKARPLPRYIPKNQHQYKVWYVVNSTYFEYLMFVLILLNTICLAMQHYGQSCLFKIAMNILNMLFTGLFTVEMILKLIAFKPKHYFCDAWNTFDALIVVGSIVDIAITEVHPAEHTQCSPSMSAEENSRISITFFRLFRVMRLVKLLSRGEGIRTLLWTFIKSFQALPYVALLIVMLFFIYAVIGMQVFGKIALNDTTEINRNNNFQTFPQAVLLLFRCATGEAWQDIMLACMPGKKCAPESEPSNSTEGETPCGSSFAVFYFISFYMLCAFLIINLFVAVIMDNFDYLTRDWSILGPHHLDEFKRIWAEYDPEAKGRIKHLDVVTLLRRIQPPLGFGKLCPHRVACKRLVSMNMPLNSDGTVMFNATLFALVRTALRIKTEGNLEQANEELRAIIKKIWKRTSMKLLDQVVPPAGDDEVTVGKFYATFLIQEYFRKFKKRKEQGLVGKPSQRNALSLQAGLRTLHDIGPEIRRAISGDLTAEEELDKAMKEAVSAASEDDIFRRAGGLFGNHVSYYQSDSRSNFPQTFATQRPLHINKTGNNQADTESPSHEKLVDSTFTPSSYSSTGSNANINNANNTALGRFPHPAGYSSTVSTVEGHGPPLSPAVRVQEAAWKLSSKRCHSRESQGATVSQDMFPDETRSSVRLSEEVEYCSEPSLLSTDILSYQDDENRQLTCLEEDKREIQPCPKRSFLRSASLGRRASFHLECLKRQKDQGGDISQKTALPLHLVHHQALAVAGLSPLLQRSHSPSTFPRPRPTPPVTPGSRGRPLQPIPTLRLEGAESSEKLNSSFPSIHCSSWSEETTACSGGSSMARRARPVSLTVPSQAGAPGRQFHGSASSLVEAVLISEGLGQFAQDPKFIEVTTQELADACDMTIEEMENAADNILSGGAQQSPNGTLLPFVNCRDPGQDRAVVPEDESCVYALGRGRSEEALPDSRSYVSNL
Note: assay procedure not described here.

| Structure (SMILES) | AC50 [1] [µM] | AC50 [2] [µM] | AC50 [3] [µM] | AC50 [4] [µM] | AC50 [5] [µM] | AC50 [6] [µM] | AC50 [7] [µM] | AC50 [8] | AC50 [9] [µM] | AC50 [10] | AC50 [11] [µM] | AC50 [12] [µM] | AC50 [13] [µM] | AC50 [14] [µM] |
| --- | --- | --- | --- | --- | --- | --- | --- | --- | --- | --- | --- | --- | --- | --- |
| Nc1ccc(S(=O)(=O)Nc2nccs2)cc1 [SULFATHIAZOLE] | > 30 | > 10 | > 30 | > 10 | > 10 | > 30 | > 10 | > 30 µM | > 10 | > 10 µM | > 30 | > 10 | > 30 | > 10 |
| CC(C)N(CCC(C(N)=O)(c1ccccc1)c1ccccn1)C(C)C (stereo not given) [DISOPYRAMIDE] | > 30 | > 10 | > 30 | > 10 | > 10 | > 30 | > 10 | > 30 µM | > 30 | > 30 µM | > 30 | > 10 | > 30 | > 10 |
| C[C@H]1c2cccc(O)c2C(=O)C2=C(O)[C@]3(O)C(=O)C(C(N)=O)=C(O)[C@@H](N(C)C)[C@@H]3[C@@H](O)[C@@H]21 [DOXYCYCLINE] | > 30 | > 10 | > 30 | > 10 | > 10 | > 30 | > 10 | > 30 µM | > 10 | > 10 µM | > 30 | > 10 | 24.2 | > 10 |
| CO[C@H]1/C=C/O[C@@]2(C)Oc3c(C)c(O)c4c(O)c(c(/C=N/N5CCN(C)CC5)c(O)c4c3C2=O)NC(=O)/C(C)=C\C=C\[C@H](C)[C@H](O)[C@@H](C)[C@@H](O)[C@@H](C)[C@H](OC(C)=O)[C@@H]1C [RIFAMPIN] | 19.4 | > 30 | > 30 | > 30 | > 30 | > 30 | > 30 | 27 µM | 26.7 | 20 µM | > 30 | > 10 | 18.8 | > 30 |
| C=CC[C@@H]1/C=C(\C)C[C@H](C)C[C@H](OC)[C@H]2O[C@@](O)(C(=O)C(=O)N3CCCC[C@H]3C(=O)O[C@H](/C(C)=C/[C@@H]3CC[C@@H](O)[C@H](OC)C3)[C@H](C)[C@@H](O)CC1=O)[C@H](C)C[C@@H]2OC [TACROLIMUS ANHYDROUS] | > 30 | > 10 | > 30 | > 10 | > 30 | > 30 | > 30 | 11 µM and 27.2 µM | > 30 | 19.6 µM and > 10 µM | > 30 | > 10 | > 30 | > 10 |
| C[C@]12C=CC(=O)N[C@@H]1CC[C@@H]1[C@@H]2CC[C@]2(C)[C@@H](C(=O)Nc3cc(C(F)(F)F)ccc3C(F)(F)F)CC[C@@H]12 [DUTASTERIDE] | > 30 | > 10 | > 10 | > 10 | > 30 | > 10 | > 10 | > 10 µM | > 10 | > 10 µM | > 30 | > 10 | > 10 | > 10 |
| COc1ccccc1Oc1c(NS(=O)(=O)c2ccc(C(C)(C)C)cc2)nc(-c2ncccn2)nc1OCCO [BOSENTAN] | > 30 | > 10 | > 30 | > 10 | > 10 | > 30 | > 10 | > 30 µM | > 30 | > 30 µM | > 30 | > 10 | > 30 | > 10 |
| COc1ccccc1OCCNCC(O)COc1cccc2[nH]c3ccccc3c12 (stereo not given) [CARVEDILOL] | 0.255 | > 10 | 29.9 | > 10 | > 10 | 14.1 | > 10 | 18.6 µM | > 30 | 4.53 µM | > 30 | > 10 | > 30 | > 10 |
| CN(C)CCc1c[nH]c2ccc(Cn3cncn3)cc12 [RIZATRIPTAN] | > 30 | > 30 | > 30 | > 30 | > 30 | > 30 | > 30 | > 30 µM | > 10 | > 10 µM | > 30 | > 30 | > 30 | > 10 |
| CC(C)Cc1ccc(C(C)C(=O)O)cc1 (stereo not given) [IBUPROFEN] | > 30 | > 10 | > 30 | > 10 | > 10 | > 30 | > 10 | > 30 µM | > 30 | > 30 µM | > 30 | > 10 | > 30 | > 10 |

Reference: ChEMBL document CHEMBL5291721, “A preclinical secondary pharmacology resource illuminates target-adverse drug reaction associations of marketed drugs” (Nat Commun, 2023)
